Values of other authors as cited in patent publication US10765646B2, “Methods of treating developmental encephalopathies” (Ovid Therapeutics Inc., priority 2017, dated 2020).

How the values were obtained:
[1] = estimated
[2] = 5 mg (±)-ketamine i.v. infusion (30 min), single dose, fasting, healthy subjects, serum
[3] = relative to ketamine
NMDA receptor = settings: noncompetitive NMDA receptor antagonist

**Q.** What does the source list for CNC1(c2ccccc2Cl)CCCCC1=O (racemic) [ketamine, (R,S)-2-(2-chlorophenyl)-2-(methylamino)cyclohexanone]?
**A.** elimination half-life [1]: 2 to 3 h; AUC0-∞ of (±)-ketamine [2]: 59.9 ± 13.2 ng·h/mL; Cmax of (±)-ketamine [2]: 33.7 ± 9.74 ng/mL; T1/2 (apparent terminal half-life) of (±)-ketamine [2]: 6.99 ± 5.22 h

**Q.** What does the source list for NC1(c2ccccc2Cl)CCCCC1=O (racemic) [norketamine, (R,S)-2-(2-chlorophenyl)-2-(amino)cyclohexanone]?
**A.** times less potent as an anesthetic in comparison (with ketamine) [3]: 3-5 times; elimination half-life [1]: 4 h

**Q.** Which Ki (NMDA receptor) does the source give for N[C@@]1(c2ccccc2Cl)CCCCC1=O [(R)-(−)-norketamine] here?
**A.** The Ki was 13 µM.

**Q.** With N[C@]1(c2ccccc2Cl)CCCCC1=O [(S)-(+)-norketamine] as the compound, how does the Ki (NMDA receptor) read?
**A.** Its Ki is 1.7 µM.
